Experimental data: paper PMC8000760, “Potential Effect of Pseudevernia furfuracea (L.) Zopf Extract and Metabolite Physodic Acid on Tumour Microenvironment Modulation in MCF-10A Cells” (Biomolecules, 2021)

How the values were obtained:
[1] = tested on: fibronectin in TGF-β-stimulated MCF-10A cells; experiment: Fibronectin expression, immunofluorescence; format: cell-based, human; details: IC10, TGF-β-stimulated MCF-10A
Method: (§1) The MCF-10A and BJ-5ta cells were seeded and cultivated for 24 h in a complete medium. One day after seeding, 30 ng/mL of TGF-β was added and cultivated for 7 days (d). TGF-β was added to induce epithelial–mesenchymal transition in tested cell lines. Lichen extract P. furfuracea (L.) Zopf and its metabolite physodic acid were added at time 0 h and then incubated for 24, 48 and 72 h for various analyses, as described in Figure 1.
The MCF-10A cells at a density of 2 × 10^3/cm^2, plated on 22 mm^2 glass coverslips, were stimulated for 7 days with 30 ng/mL of TGF-β. […] After treatment, cells were washed with PBS, fixed with 4% paraformaldehyde (pH 7.2) for 10 min, permeabilised by 0.1% Triton X-100 (Sigma-Aldrich) for 10 min at RT and then washed three) times with PBS for 5 min. Glass coverslips were then incubated with Swine serum (1:30) for 30 min for blocking non-specific binding. Primary antibodies were diluted according to the manufacturer’s instructions (Table 2) and transferred to coverslips for 90 min. […] All coverslips were mounted in Vectashield (Cole-Parmer, Illinois, USA) and immunofluorescence pictures were taken with the same exposition settings by the Nikon Eclipse 90i fluorescence microscope (Nikon, Tokyo, Japan) equipped with filter cubes for FITC and DAPI. Images were then analysed using ImageJ (NIH) software.

[2] = tested on: chorioallantoic membrane (CAM) of fertilised quail eggs; experiment: Ex ovo chorioallantoic membrane (CAM) assay; format: in vivo, Coturnix coturnix japonica
Method: Fertilised quail eggs (Coturnix coturnix japonica; 20 specimens) were obtained from the certified farm (Mala Ida, Slovakia) and incubated horizontally in a forced draft constant humidity incubator at 38.2 ± 0.5 °C and 58% relative humidity. After 56 h, the eggs were sterilised by wiping the surface lightly with 70% ethanol and allowed to dry. An incision was made in the middle ventral part of the shell, using sterile scissors, and the embryos were deposited in six-well tissue culture dishes (Sigma-Aldrich), which were then returned to the humidified incubator for an additional 4 days, until the start of the experiments. At day 7 (96 h after day 3), a sterilised silicone ring (10 mm inner diameter) was laid on CAM surface for the deposition of testing solution. […] At least 10 eggs were used in every experimental group. The photographs of CAM blood vessels’ formation inside of rings were obtained using a stereomicroscope Olympus SZ61 (Tokyo, Japan) and digital camera PROMICRA 3.2 (Prague, Czech Republic). Subsequently, photographs were pre-processed using QuickPHOTO MICRO microscope software (Promicra; Prague, Czech Republic). Representative images were then analysed using Wimasis Image Analysis automatic software to quantify the angiogenesis.

MCF-10A = experiment: BrdU cell proliferation assay; format: cell-based, human; details: 72 h
Method: (§2) The MCF-10A (5 × 10^3/well), BJ-5ta (5 × 10^3/well) and HUVEC cells (4 × 10^3/well) were plated in a 96-well plate in 80 μL suitable medium. HUVECs were seeded onto a gelatine-coated plate. After 24 h, cells were treated with the range of concentration 10–100 μg/mL for 72 h (MCF-10A, BJ-5ta), or in the presence or absence of 25 ng/mL of VEGF for 48 h (HUVECs). After 48 h (MCF-10A, BJ-5ta) or 24 h (HUVECs), BrdU labelling solution was added into cells and incubated for another 24 h at 37 °C, followed by fixation and incubation with anti-BrdU peroxidase conjugate solution for an additional 1.5 h at room temperature (RT). Then, cells were washed with washing buffer PBS and incubated with substrate solution TMB for 5 to 30 min according to colour intensity. Finally, we added stop solution (1 M H2SO4) and incorporated BrdU was detected with an automated CytationTM 3 Cell Imaging Multi-Mode Reader at 450 nm (reference wavelength: 690 nm). Three independent experiments were performed at different intervals.

HUVECs = experiment: BrdU cell proliferation assay; format: cell-based, human; details: 48 h
Method: as §2

[3] = tested on: E-cadherin in TGF-β-stimulated MCF-10A cells; experiment: E-cadherin expression (Western blot, flow cytometry, immunofluorescence); format: cell-based, human; details: TGF-β-stimulated groups
Method: as §1
The MCF-10A cells (1 × 10^4/well) were seeded in Petri dishes and stimulated with […] TGF-β for 7 days. […] After detaching, using Trypsin/EDTA, cells were harvested and pelleted by centrifugation at 1200 rpm for 5 min. […] All samples were analysed using a FACS Calibur flow cytometer (Becton Dickinson, San Jose, CA, USA). […]
Proteins isolated from MCF-10A and BJ-5ta cell lysates were determined by the Pierce® BCA Protein Assay Kit (Thermo Scientific, Rockford, IL, United States), using bovine serum albumin (BSA) as the standard, and measured by an automated Cytation™ 3 Cell Imaging Multi-Mode Reader (Biotek) at a wavelength of 570 nm. […] After incubation, the membrane was again washed in TBS-Tween (3 × 5 min), and the expression of the protein was detected using a chemiluminescent ECL substrate (Thermo Fisher Scientific) and MF-ChemiBIS 2.0 Imaging System (DNR BIO-Imaging Systems, Jerusalem, Israel). […]

BJ-5ta = experiment: BrdU cell proliferation assay; format: cell-based; details: 72 h
Method: as §2

[4] = VEGF-stimulated (25 ng/mL), IC10, 72 h, compared to VEGF alone

`CCCCCC(=O)Cc1cc(O)cc2c1C(=O)Oc1cc(O)c(C(=O)O)c(CCCCC)c1O2` [Phy, physodic acid] was tested, and the “fibronectin expression, immunofluorescence” value [1] was “downregulation”, the total branching points [2, 4] was “significant decrease” and the “total vascular network length” value [2, 4] was “significant decrease”. The vascular density [2, 4] was “significant decrease”, the total branching points ([2]; absence of VEGF) was “not significantly affected” and the vessel density ([2]; non-stimulated group (absence of VEGF)) was “significant change”. It also gave an IC10 (MCF-10A) of 63.63 ± 3.40 µM, an IC50 (MCF-10A; Homo sapiens) of 155 ± 7.4 µM and an IC10 (HUVECs) of 89.53 ± 3.21 µM. For the same molecule, the IC50 (HUVECs; Homo sapiens, HUVEC) was 124 ± 5.33 µM, the “restoration of E-cadherin” value [3] was “did not observe a significant restoration” and the IC10 (BJ-5ta) was 62.88 ± 0.90 µM. It also gave an IC50 (BJ-5ta) of 164 ± 4.5 µM.
